According to ChEMBL document CHEMBL1148099, “New myrsinol-related polyfunctional pentacyclic diterpene esters from roots of Euphorbia prolifera” (J Nat Prod, 1995):

Experiment: Skin irritant activity in mouse ear assessed as irritant units per ear after 24 hrs
Type: ADME, tissue-based
Settings: topical_or_ocular

Structure (SMILES)	Activity
CCC(=O)OC1C(C)CC2(OC(C)=O)C1[C@@H](OC(C)=O)[C@@]13CO[C@@](C)(C2OC(C)=O)C1C1C(C[C@]1(C)OC(C)=O)C(OC(=O)C(C)C)C3=O (some centres not stated)	> 1000 µg
CCC(=O)OC1C(C)CC2(OC(C)=O)C1[C@@H](OC(C)=O)[C@@]13CO[C@@](C)(C2OC(C)=O)C1C1C(C[C@]1(C)OC(C)=O)C(OC(=O)c1ccccc1)C3=O (some centres not stated)	> 1000 µg
